Reference: ChEMBL document CHEMBL1144945, “Development of progesterone receptor antagonists from 1,2-dihydrochromeno[3,4-f]quinoline agonist pharmacophore” (Bioorg Med Chem Lett, 2003)
Calls of active or inactive are those of the source.

Assays:
[1] = biological target: Estrogen receptor (Homo sapiens) (UniProt Q92731+P03372); test: Antagonist efficacy for Estrogen receptor; Not active; assay type: functional
Progesterone receptor [2] = biological target: T1, Progesterone receptor (Homo sapiens, UniProt P06401)
T1 sequence (P06401 whole entry): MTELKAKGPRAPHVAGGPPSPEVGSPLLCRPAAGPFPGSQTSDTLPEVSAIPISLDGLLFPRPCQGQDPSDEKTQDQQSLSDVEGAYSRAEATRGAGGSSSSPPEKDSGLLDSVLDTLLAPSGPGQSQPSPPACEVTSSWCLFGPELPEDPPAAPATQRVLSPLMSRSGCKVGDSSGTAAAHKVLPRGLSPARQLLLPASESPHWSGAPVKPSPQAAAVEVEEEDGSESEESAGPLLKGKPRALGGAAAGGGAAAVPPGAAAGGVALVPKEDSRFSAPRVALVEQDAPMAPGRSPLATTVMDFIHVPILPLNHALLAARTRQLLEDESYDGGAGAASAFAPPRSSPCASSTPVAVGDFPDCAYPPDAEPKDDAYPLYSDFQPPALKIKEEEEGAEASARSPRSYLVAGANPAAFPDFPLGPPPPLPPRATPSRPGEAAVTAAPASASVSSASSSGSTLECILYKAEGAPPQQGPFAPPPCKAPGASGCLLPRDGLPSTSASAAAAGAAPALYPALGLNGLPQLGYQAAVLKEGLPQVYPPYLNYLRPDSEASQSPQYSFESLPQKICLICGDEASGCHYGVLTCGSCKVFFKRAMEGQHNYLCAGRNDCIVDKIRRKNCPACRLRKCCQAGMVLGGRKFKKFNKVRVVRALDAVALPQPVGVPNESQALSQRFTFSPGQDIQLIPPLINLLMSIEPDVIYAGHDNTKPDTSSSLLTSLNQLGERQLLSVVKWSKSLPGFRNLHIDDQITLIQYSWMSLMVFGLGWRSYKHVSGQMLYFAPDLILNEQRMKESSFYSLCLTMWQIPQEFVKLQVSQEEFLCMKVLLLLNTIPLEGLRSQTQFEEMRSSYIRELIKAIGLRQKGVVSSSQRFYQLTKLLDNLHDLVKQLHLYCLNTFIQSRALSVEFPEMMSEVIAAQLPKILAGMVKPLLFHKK
Description: Inhibition of human progesterone receptor activation in T47D human breast cancer cell.

Progesterone receptor [3] = biological target: T1, Progesterone receptor; test: Effective concentration for human progesterone receptor in T47D human breast cancer cell; not active (<20% efficacy and/or >10 mM potency); conditions: cancer cell lines
Progesterone receptor [4] = biological target: T1, Progesterone receptor; remark: listed apart in the source
Description: Binding affinity at human progesterone receptor.

Progesterone receptor [5] = biological target: T1, Progesterone receptor; remark: listed apart in the source
Description: Antagonistic activity at human progesterone receptor in CV-1 cells.

[6] = biological target: T2, Mineralocorticoid receptor (Homo sapiens) (UniProt P08235); test: Antagonist efficacy for mineralocorticoid receptor (hMR); Not active; assay type: functional
T2 sequence (whole entry): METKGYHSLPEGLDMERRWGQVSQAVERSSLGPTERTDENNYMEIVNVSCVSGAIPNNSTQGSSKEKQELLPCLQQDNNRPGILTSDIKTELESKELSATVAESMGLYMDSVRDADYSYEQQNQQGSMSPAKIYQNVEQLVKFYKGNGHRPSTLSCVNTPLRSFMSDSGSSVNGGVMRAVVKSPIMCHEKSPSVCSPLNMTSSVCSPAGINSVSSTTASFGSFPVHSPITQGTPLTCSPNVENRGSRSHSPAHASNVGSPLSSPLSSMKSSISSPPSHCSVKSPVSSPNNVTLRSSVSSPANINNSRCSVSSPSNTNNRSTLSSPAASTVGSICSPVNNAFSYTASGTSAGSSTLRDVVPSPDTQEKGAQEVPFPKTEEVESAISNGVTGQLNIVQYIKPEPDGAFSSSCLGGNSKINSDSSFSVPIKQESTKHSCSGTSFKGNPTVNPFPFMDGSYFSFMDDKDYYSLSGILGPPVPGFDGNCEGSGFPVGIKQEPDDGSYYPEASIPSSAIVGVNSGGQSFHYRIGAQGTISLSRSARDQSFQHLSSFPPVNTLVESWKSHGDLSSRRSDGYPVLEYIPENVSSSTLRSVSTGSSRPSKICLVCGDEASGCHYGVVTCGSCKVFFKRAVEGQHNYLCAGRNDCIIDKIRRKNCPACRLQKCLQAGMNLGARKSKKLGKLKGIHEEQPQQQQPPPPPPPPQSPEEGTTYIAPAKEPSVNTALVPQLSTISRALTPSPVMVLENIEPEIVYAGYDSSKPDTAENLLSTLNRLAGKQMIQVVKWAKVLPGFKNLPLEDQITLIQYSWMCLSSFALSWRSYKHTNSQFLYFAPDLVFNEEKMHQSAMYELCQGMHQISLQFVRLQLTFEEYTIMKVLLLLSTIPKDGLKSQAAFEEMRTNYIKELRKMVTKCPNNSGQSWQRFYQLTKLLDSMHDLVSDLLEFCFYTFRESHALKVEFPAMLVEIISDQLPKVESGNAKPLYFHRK

[7] = biological target: T3, Mineralocorticoid receptor (Homo sapiens, UniProt P08235); test: Inhibition of antagonist activity towards mineralocorticoid receptor (hMR); Not active; assay type: functional
T3 sequence (P08235 whole entry): T2 sequence (whole entry)

[8] = biological target: T4, Progesterone receptor (Homo sapiens) (UniProt P06401); test: Agonist efficacy for human progesterone receptor in T47D human breast cancer cell; not active (<20% efficacy and/or >10 mM potency); assay type: functional, cell-based
T4 sequence (whole entry): T1 sequence (P06401 whole entry)

Progesterone receptor [9] = biological target: T1, Progesterone receptor; test: Effective concentration for antagonistic activity towards human progesterone in CV-1 cells; assay type: functional, cell-based

| Efficacy [1] | IC50 (Progesterone receptor [2]) [nM] | EC50 (Progesterone receptor [3]) | Ki (Progesterone receptor [4]) [nM] | EC50 (Progesterone receptor [5]) [nM] | Efficacy [6] | IC50 [7] | Efficacy [8] | EC50 (Progesterone receptor [9]) [nM] | Structure (SMILES) | IC50 ([7]; read-out: IC50) |
| --- | --- | --- | --- | --- | --- | --- | --- | --- | --- | --- |
| inactive | 217 | Not Active | 45 | 40 | inactive | Not Active | inactive | – | CC1CC(C)(C)Nc2ccc3c(c21)COc1c(F)cc(F)cc1-3 (stereo not given) | – |
| – | – | – | – | – | inactive | Not Active | – | 13.5 | CC1=CC(C)(C)Nc2ccc3c(c21)COc1c(F)cc(Cl)cc1-3 | – |
| inactive | 461 | Not Active | 12.4 | 57 | inactive | Not Active | inactive | – | CC1=CC(C)(C)Nc2ccc3c(c21)COc1c(F)cc(Br)cc1-3 | – |
| – | – | – | – | – | inactive | Not Active | – | 25.4 | CC1=CC(C)(C)Nc2ccc3c(c21)COc1c(F)cc(F)cc1-3 | – |

| Structure (SMILES) | Efficacy [1] | IC50 (Progesterone receptor [2]) [nM] | EC50 (Progesterone receptor [3]) | Ki (Progesterone receptor [4]) [nM] | EC50 (Progesterone receptor [5]) [nM] | Efficacy [6] | IC50 [7] | Efficacy [8] | EC50 (Progesterone receptor [9]) [nM] | IC50 ([7]; read-out: IC50) |
| --- | --- | --- | --- | --- | --- | --- | --- | --- | --- | --- |
| CC1CC(C)(C)Nc2ccc3c(c21)COc1ccc([N+](=O)[O-])cc1-3 (stereo not given) | inactive | 104 | Not Active | 144 | 52 | 58% | – | inactive | – | 2870 nM (not active) |
